For assay [1], the target named is T1, CDK2/Cyclin A (Homo sapiens, UniProt P24941).
T1 construct: purchased Invitrogen PV6290
Kind of assay: Enzymatic assay for CDK2 (LANCE Ultra kinase assay, FRET based). Format: biochemical. Conditions: ATP at Km. The procedure, abridged: (§1)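 Inhibition was measured at ATP Km with 68 nM ULight-MBP peptide and CDK2/Cyclin A ([…]) or CDK5/p25 ([…]), using 8-dose 4-fold compound dilutions from DMSO. Kinase reaction ran 60 min at 23° C, then Eu anti-phospho-MBP plus EDTA were added for another 60 min before the fluorescence read.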
In general terms: In TR-FRET formats the signal depends on donor and acceptor labels being close together.

Assay [2] relates to H460. Kind of assay: Cellular H460 viability assay (CellTiter-Glo, 72 hours). Type of assay: cell-based. Conditions: Homo sapiens, NCI-H460; H460 cells.
Assay [3] has as its target T2, CDK7/Cyclin H/MNAT1 (Homo sapiens, UniProt P50613).
T2 construct: purchased Invitrogen PR6749B
Kind of assay: Enzymatic assay for CDK7 (LANCE Ultra kinase assay, FRET based). Type of assay: biochemical. The procedure, abridged: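 Purified CDK7/Cyclin H/MNAT1 or CDK1/Cyclin B complexes were tested for inhibition at Km ATP. Phosphorylation of a ULight-labelled peptide was detected by FRET with a Europium anti-phospho antibody (LANCE Ultra).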

In assay [4] the test system is OVCAR-3. Kind of assay: OVCAR-3 viability assay (CellTiter-Glo, 72 hours). Type of assay: cell-based. The conditions noted are these: Homo sapiens; OVCAR-3 cells. In a few lines: (§2)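 CellTiter-Glo luminescence measured viability after 72 h of compound exposure (0.0015–10 uM; DMSO below 0.1%) at 37 °C, 5% CO2, run in duplicate. Dosing began 24 h post-seeding in RPMI-1640/10% FBS at 1×10^4 (MV4-11), 5×10^3 (OVCAR-3) or 1×10^3 (A2780) cells/well.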
For orientation: In ATP-based viability assays light output follows the ATP content of the culture.

Assay [5] relates to MV4-11. Kind of assay: Cellular MV4-11 viability assay (CellTiter-Glo, 72 hours). Format: cell-based. The conditions noted are these: Homo sapiens; MV4-11 cells. The procedure, abridged:
as §2

Assay [6] has as its target T3, CDK5/p25 (Homo sapiens, UniProt Q00535).
T3 construct: purchased Invitrogen PR8543B
Kind of assay: Enzymatic assay for CDK5 (LANCE Ultra kinase assay, FRET based). Type of assay: biochemical. The conditions noted are these: ATP at Km. In a few lines:
as §1

T2 sequence (P50613 whole entry): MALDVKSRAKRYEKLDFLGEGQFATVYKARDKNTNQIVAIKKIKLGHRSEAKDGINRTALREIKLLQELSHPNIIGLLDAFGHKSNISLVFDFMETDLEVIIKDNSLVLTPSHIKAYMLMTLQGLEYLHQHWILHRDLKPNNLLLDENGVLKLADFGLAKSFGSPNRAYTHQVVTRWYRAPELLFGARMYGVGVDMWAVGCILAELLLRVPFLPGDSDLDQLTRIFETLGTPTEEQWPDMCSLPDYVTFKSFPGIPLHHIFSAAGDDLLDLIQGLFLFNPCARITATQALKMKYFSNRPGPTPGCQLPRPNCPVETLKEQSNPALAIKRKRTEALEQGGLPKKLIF
T2 sequence (P51946 whole entry partner): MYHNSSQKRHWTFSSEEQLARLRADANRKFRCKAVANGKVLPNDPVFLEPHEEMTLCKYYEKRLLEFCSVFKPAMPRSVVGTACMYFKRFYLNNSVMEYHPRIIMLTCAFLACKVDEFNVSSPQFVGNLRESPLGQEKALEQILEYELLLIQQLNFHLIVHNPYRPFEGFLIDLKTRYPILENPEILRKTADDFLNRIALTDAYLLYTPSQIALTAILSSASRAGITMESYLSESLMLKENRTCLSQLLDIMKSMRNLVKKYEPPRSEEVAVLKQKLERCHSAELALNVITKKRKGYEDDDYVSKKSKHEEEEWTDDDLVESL
T2 sequence (P51948 whole entry partner): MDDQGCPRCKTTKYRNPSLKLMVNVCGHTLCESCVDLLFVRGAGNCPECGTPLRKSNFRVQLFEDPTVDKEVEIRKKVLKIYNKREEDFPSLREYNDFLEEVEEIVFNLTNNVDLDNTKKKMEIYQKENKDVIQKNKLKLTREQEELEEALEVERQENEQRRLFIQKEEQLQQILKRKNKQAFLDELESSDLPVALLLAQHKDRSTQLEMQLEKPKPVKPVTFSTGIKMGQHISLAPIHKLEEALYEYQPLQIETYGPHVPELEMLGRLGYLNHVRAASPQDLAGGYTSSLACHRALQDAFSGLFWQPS
T3 sequence (Q00535 whole entry): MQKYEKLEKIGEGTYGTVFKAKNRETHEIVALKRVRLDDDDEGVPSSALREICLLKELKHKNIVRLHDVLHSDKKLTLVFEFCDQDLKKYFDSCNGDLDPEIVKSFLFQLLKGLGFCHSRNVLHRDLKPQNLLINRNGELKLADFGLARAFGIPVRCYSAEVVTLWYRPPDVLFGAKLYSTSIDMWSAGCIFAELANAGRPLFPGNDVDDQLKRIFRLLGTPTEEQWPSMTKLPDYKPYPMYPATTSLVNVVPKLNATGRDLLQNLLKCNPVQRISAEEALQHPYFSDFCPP
T3 sequence (Q15078 99-307 partner limits assumed): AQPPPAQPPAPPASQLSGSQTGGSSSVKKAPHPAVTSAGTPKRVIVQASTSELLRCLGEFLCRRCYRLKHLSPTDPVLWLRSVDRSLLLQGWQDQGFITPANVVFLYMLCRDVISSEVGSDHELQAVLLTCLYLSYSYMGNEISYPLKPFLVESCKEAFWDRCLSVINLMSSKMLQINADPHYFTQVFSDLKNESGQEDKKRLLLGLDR

The IC50 is the concentration that inhibits the measured activity by half. Higher therefore signals a need for much substance. For `CC(C)c1cnn2c(NCc3ccccc3-c3nccc4cc(NC(=O)/C=C/CN(C)C)ccc34)nc(N3CCC(N)CC3)nc12` [Compound 11], the IC50 in assay [1] is > 1 µM; in assay [2], < 1 µM; in assay [3] (ATP at Km) it was < 0.1 µM; in assay [4], < 1 µM; in assay [5], < 1 µM; in assay [6], > 1 µM. Also, in assay [3] (CDK7 over CDK1), the “CDK1/CDK7: Selectivity of CDK7 inhibition over CDK1 inhibition” value is “A (A indicates [fold] > 500)”. Further, the “CDK2/CDK7: Selectivity of CDK7 inhibition over CDK2 inhibition” value in assay [3] (CDK7 over CDK2) is “A (A indicates [fold] > 500)”. The “CDK5/CDK7: Selectivity of CDK7 inhibition over CDK5 inhibition” value in assay [3] (CDK7 over CDK5) was “A (A indicates [fold] > 500)”.
